Laboratory results reported in ChEMBL document CHEMBL5137025, “Tuberculosis Drug Discovery: Challenges and New Horizons” (J Med Chem, 2022).
≈ marks a conversion by molar mass, not a printed value.

Experiments:
[1] = tested on: Mycobacterium tuberculosis; type: functional; details: H37Rv, 336 h, time 14 day
[2] = Cytotoxicity against human THP-1 cells assessed as reduction in cell viability treated for 96 hrs by MTT assay; type: toxicity, cell-based
[3] = tested on: Mycobacterium tuberculosis; assay: Antibacterial activity against Mycobacterium tuberculosis Erdman in acute Mtb infection BALB/c mouse model assessed as reduction in log10 CFU in lungs at 50 mg/kg, po via gavage for 8 weeks; type: functional
[4] = tested on: Mycobacterium tuberculosis; type: functional, H37Rv; details: dose 3.1 mg/kg; route po; time 4 weeks
[5] = molecular target: Voltage-gated inwardly rectifying potassium channel KCNH2 (Homo sapiens, UniProt Q12809); assay: Inhibition of hERG expressed in human HEK293 cells by manual patch clamp method; type: toxicity, cell-based
[6] = tested on: Mycobacterium tuberculosis; type: functional, H37Rv; details: dose 200 mg/kg; route po; time 4 weeks
[7] = tested on: Mycobacterium tuberculosis; type: functional; details: H37Rv
[8] = Acute toxicity in 10 to 14 hr fasted Sprague-Dawley rat assessed as maximum tolerated dose administered orally via gavage; details: in vivo, time 10-14 hrs, route po
[9] = Cytotoxicity against African green monkey Vero cells assessed as reduction in cell viability treated for 72 hrs by CCK8 assay; type: toxicity, cell-based; details: chlorocebus sabaeus
[10] = Cytotoxicity against African green monkey Vero cells assessed as reduction in cell viability treated for 3 days by Cell Titer Glo assay; type: toxicity, cell-based; details: chlorocebus sabaeus, time 3 day
[11] = Half life in Sprague-Dawley rat at 10 mg/kg, po via gavage measured for 0.25 to 96 hrs by LC/MS analysis; type: ADME, organism-based; details: in vivo, time 0.25-96 hrs
[12] = Oral bioavailability in Sprague-Dawley rat at 10 mg/kg via gavage measured for 0.25 to 96 hrs by LC/MS analysis; type: ADME, organism-based; details: in vivo, time 0.25-96 hrs
[13] = tested on: Mycolicibacterium smegmatis; assay: Inhibition of ATP synthesis in Mycobacterium smegmatis derived membrane vesicle incubated for 60 mins by luciferase based assay; type: functional; details: 1 h
[14] = tested on: Mycobacterium tuberculosis; assay: microbe, parasite or virus in culture; details: H37Rv
Description: Antibacterial activity against Mycobacterium tuberculosis H37Rv assessed as inhibition of bacterial growth

[15] = tested on: Mycobacterium tuberculosis; type: functional, H37Rv; details: dose 100 mg/kg; route po; time 2 weeks
[16] = molecular target: Cytochrome P450 3A4 (Homo sapiens, UniProt P08684); assay: Inhibition of CYP3A4 in human liver microsome using midazolam as substrate incubated for 10 mins in presence of NADP+ by LC-MS/MS analysis; type: ADME, microsomes
[17] = tested on: Mycobacterium tuberculosis; type: functional, H37Rv; details: dose 100 mg/kg; route po; time 4 weeks
[18] = Metabolic stability in human liver microsomes assessed as compound remaining measured after 1 hr in presence of NADP+ by LC-MS/MS analysis; type: ADME, Microsome; details: read-out: Stability
[19] = Metabolic stability in mouse liver microsomes assessed as compound remaining measured after 1 hr in presence of NADP+ by LC-MS/MS analysis; type: ADME, Microsome; details: read-out: Stability
[20] = tested on: HepG2; assay: Cytotoxicity against human HepG2 cells treated for 48 hrs by resazurin dye based assay; type: functional
[21] = tested on: Mycobacterium tuberculosis; type: functional; details: H37Rv, time 6 day
[22] = tested on: Mycobacterium tuberculosis; type: functional, H37Rv; details: dose 50 mg/kg; route po; time 3 weeks
[23] = tested on: Mycobacterium tuberculosis; type: functional; details: H37Rv, 168 h, time 7 day
[24] = tested on: Mycobacterium tuberculosis; type: functional, H37Rv; details: dose 100 mg/kg; route po; time 3 weeks
[25] = tested on: Mycobacterium tuberculosis; type: functional, H37Rv; details: dose 100 mg/kg; route po; time 4 weeks; remark: listed apart in the source
[26] = tested on: Mycobacterium tuberculosis; assay: Bactericidal activity against Mycobacterium tuberculosis H37Rv in acute Mtb infection BALB/c mouse model assessed as reduction in relative light unit at 100 mg/kg for 6 days; type: functional; details: time 6 day
[27] = tested on: A549; assay: Cytotoxicity against human A549 cells treated for 72 hrs by MTT assay; type: functional
[28] = Metabolic stability in mouse liver microsome assessed as half life in presence of NADPH measured upto 60 mins by LC-MS/MS analysis; type: ADME; details: liver microsomes
[29] = Protein binding in mouse plasma; type: ADME, cell-free; details: read-out: PPB (converted)
[30] = Cytotoxicity against African green monkey Vero cells treated for 72 hrs by microplate reader method; type: toxicity, cell-based; details: chlorocebus sabaeus
[31] = Metabolic stability in mouse liver microsomes assessed as half life; type: ADME, Microsome
[32] = tested on: Mycobacterium tuberculosis; assay: Antibacterial activity against Mycobacterium tuberculosis in chronic Mtb infection C3HeB/FeJ mouse model assessed as reduction in log10 CFU in lungs at 250 mg/kg, po via gavage for 2 weeks; type: functional
[33] = Kinetic aqueous solubility of the compound; type: physicochemical; details: buffer; read-out: Kinetic_solubility
[34] = tested on: Mycobacterium tuberculosis; assay: Antibacterial activity against Mycobacterium tuberculosis in acute Mtb infection C3HeB/FeJ mouse model assessed as reduction in log10 CFU in lungs at 250 mg/kg, po via gavage for 2 weeks; type: functional
[35] = tested on: Mycobacterium tuberculosis; assay: Antibacterial activity against Mycobacterium tuberculosis CDC1551 infected in mouse J774 cells assessed as inhibition of bacterial growth at 20 uM incubated for 24 hrs relative to control; type: functional; set-up: scale not given: the % may be the effect or the level left
[36] = Half life in BALB/c mouse at 200 mg/kg, po measured for 0.5 to 24 hrs by LC-MS analysis; type: ADME, organism-based; details: in vivo, time 0.5-24 hrs
[37] = Cytotoxicity against African green monkey Vero cells treated for 2 days by Cell Titer Glo assay; type: toxicity, cell-based; details: chlorocebus sabaeus, time 2 day
[38] = Solubility of the compound in microbiological medium at pH 6.8; type: physicochemical
[39] = Metabolic stability in human liver S9 microsomes assessed as half life in presence of NADPH by LC-MS/MS analysis; type: ADME
[40] = tested on: Mycobacterium tuberculosis; type: functional; details: H37Rv, 216 h, time 9 day
[41] = tested on: Mycobacterium tuberculosis; type: functional; details: H37Rv, 120 h, time 5 day
[42] = tested on: Mycobacterium tuberculosis; assay: Antibacterial activity against Mycobacterium tuberculosis Erdman in chronic Mtb infection BALB/c mouse model assessed as reduction in log10 CFU in lungs at 200 mg/kg, po via gavage for 30 days; type: functional; details: time 30 day
[43] = tested on: Mycobacterium tuberculosis; assay: Antibacterial activity against Mycobacterium tuberculosis Erdman in chronic Mtb infection BALB/c mouse model assessed as reduction in log10 CFU in lungs at 100 mg/kg, po via gavage for 30 days in presence of 1-aminobenzotriazole; type: functional; details: time 30 day
[44] = Permeability in human Caco2 cells treated for 1 to 2 hrs by LC-MS/MS analysis; type: ADME, cell-based; details: Caco-2, time 1-2 hrs, read-out: permeability
[45] = tested on: Mycobacterium tuberculosis; assay: Antibacterial activity against Mycobacterium tuberculosis Erdman in chronic Mtb infection BALB/c mouse model assessed as reduction in log10 CFU in lungs at 200 mg/kg, po via gavage for 30 days in presence of 1-aminobenzotriazole; type: functional; details: time 30 day
[46] = tested on: HepG2; assay: Cytotoxicity against human HepG2 cells assessed as reduction in cell viability treated for 3 days by resazurin dye based assay; type: functional; details: HepG2, 72 h, time 3 day
[47] = tested on: Mycobacterium tuberculosis; type: functional, H37Rv; details: dose 150 mg/kg; route po; time 10 day
[48] = tested on: Mycobacterium tuberculosis; type: functional; details: H37Rv, time 14-21 day
[49] = tested on: Mycobacterium tuberculosis; assay: Antibacterial activity against Mycobacterium tuberculosis Erdman in acute Mtb infection BALB/c mouse model assessed as reduction in log10 CFU in lungs at 100 mg/kg, po qd via gavage for 4 weeks; type: functional

Sequence of Cytochrome P450 3A4 (P08684 whole entry): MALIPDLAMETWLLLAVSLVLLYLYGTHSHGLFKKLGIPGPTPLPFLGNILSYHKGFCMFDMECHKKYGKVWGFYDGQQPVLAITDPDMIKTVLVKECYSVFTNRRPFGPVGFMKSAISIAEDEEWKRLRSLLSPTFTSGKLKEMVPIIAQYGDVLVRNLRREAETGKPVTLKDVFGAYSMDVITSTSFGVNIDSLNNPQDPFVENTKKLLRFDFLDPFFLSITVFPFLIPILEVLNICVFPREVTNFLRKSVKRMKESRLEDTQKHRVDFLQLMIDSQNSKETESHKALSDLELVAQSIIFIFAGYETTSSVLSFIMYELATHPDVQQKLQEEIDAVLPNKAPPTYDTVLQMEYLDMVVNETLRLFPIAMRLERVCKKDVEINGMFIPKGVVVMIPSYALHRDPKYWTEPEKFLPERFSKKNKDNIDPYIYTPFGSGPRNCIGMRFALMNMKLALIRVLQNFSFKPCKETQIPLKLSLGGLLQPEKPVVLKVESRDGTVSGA
Sequence of Voltage-gated inwardly rectifying potassium channel KCNH2 (Q12809 whole entry): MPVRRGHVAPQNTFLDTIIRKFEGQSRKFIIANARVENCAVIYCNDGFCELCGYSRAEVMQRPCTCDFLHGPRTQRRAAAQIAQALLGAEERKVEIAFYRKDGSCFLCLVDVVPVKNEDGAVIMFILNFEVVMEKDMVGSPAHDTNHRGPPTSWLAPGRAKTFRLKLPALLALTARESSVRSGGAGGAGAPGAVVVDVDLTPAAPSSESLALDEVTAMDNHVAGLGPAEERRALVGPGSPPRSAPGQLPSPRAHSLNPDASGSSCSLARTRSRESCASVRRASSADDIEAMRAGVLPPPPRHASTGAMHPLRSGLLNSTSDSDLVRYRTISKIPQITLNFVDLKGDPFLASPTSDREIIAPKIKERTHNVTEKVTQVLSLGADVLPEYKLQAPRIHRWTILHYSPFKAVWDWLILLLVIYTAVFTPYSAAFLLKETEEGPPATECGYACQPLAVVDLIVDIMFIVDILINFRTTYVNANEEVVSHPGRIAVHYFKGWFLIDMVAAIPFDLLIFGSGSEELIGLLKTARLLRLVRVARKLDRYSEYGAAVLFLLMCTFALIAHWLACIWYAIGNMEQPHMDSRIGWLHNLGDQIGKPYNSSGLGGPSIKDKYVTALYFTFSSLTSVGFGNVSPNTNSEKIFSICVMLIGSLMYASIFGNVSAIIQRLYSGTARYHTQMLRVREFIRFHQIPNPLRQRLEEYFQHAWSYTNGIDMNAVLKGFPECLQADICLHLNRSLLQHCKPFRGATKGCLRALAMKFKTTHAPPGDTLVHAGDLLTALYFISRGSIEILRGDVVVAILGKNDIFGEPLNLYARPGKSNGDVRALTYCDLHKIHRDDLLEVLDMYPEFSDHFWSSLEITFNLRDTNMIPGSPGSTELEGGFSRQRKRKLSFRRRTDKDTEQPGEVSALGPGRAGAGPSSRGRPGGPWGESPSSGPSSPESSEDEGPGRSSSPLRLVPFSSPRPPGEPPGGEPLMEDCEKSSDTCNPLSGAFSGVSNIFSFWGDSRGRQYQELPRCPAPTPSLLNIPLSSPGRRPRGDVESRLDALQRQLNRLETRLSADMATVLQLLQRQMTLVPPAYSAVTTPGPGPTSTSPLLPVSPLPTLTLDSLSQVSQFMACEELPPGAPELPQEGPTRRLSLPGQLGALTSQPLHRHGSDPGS

Question: Which MIC99 [1] does the source give for O=[N+]([O-])c1cc2cccnc2c2ncccc12 here?
Answer: The MIC99 was 0.78 µM (≈ 0.176 µg/mL).

Question: And the CC50 at 96 h [2]?
Answer: Its CC50 at 96 h is over 25 µM.

Question: For COc1ccn2nc(C)c(C(=O)NCc3ccc(N4CCC(c5ccc(OC(F)(F)F)cc5)CC4)cc3)c2c1, which Activity [3] is on record?
Answer: Its Activity is 0.3 log10CFU.

Question: And the Activity [4]?
Answer: The Activity was 2.2 log10CFU.

Question: What about the IC50 [5] of the same molecule?
Answer: Its IC50 is over 30 µM.

Question: What about the Activity [6] of the same molecule?
Answer: Its Activity is 2.2 log10CFU.

Question: And the MIC90 [7]?
Answer: Its MIC90 is 0.011 µM (≈ 0.00592 µg/mL).

Question: And the MTD [8]?
Answer: The MTD was over 2000 mg/kg.

Question: And the CC50 at 72 h [9]?
Answer: Its CC50 at 72 h is over 100 µM.

Question: And the CC50 at 72 h [10]?
Answer: The CC50 at 72 h was over 100 µM.

Question: What about the half-life [11] of the same molecule?
Answer: Its half-life is 1140 min.

Question: And the bioavailability [12]?
Answer: Its bioavailability is 94%.

Question: Which results are given for CN(C)CCOc1ncc(Nc2cc(-c3ccccc3)nc3cc(-c4ccc(F)cc4)nn23)cc1F?
Answer: IC50 [13]: 0.5 µM; MIC80 [14]: 6.2 µM (≈ 3.02 µg/mL); Activity [15]: 1.5 log10CFU

Question: What does the source list for CC(C)c1ccc(-c2nc(CN3CCN(c4ccnc5cc(-c6cccnc6)ccc45)CC3)no2)cc1?
Answer: IC50 [16]: > 25 µM; Activity [17]: 0.6 log10CFU; remaining at 1 h [18]: 40%; remaining at 1 h [19]: 1.2%; CC50 [20]: > 130 µM; MIC [21]: 1 µM (≈ 0.491 µg/mL)

Question: For CC(=O)NC[C@@H]1OC(=O)N2c3cc(F)c(N4CCSCC4)cc3OC[C@@H]12, which Activity [22] is on record?
Answer: The Activity was “>=3 log10CFU”.

Question: And the MIC90 [23]?
Answer: The MIC90 was 0.08 µM (≈ 0.0305 µg/mL).

Question: And the Activity [24]?
Answer: The Activity was 5.1 log10CFU.

Question: For Cc1cnc2c(c1)cc([N+](=O)[O-])c1cccnc12, which Activity [25] is on record?
Answer: The Activity was 1 log10CFU.

Question: What about the MIC99 [1] of the same molecule?
Answer: Its MIC99 is 0.2 µM (≈ 0.0478 µg/mL).

Question: With CC1(C)CCC(OC(=O)Nc2cc(O)cc(Cc3ccccc3)c2)CC1 as the molecule, how does the Activity [26] read?
Answer: The Activity was 1.3 log10RLU.

Question: What about the MIC90 [14] of the same molecule?
Answer: Its MIC90 is 1.8 µM (≈ 0.636 µg/mL).

Question: What about the CC50 [27] of the same molecule?
Answer: Its CC50 is 64 µM.

Question: And the half-life [28]?
Answer: Its half-life is 1.8 min.

Question: For CCSc1ncc(CN2CCN(c3nc4ccccc4o3)CC2)cn1, which fraction unbound [29] is on record?
Answer: The fraction unbound was 0.03.

Question: What about the CC50 at 72 h [30] of the same molecule?
Answer: Its CC50 at 72 h is over 141 µM.

Question: What about the half-life [31] of the same molecule?
Answer: Its half-life is 49 min.

Question: And the Activity [32]?
Answer: The Activity was 0.7 log10CFU.

Question: And the solubility kinetic [33]?
Answer: The solubility kinetic was 76 µM (≈ 27 µg/mL).

Question: What about the Activity [34] of the same molecule?
Answer: Its Activity is 0.9 log10CFU.

Question: What about the Activity [35] of the same molecule?
Answer: Its Activity is 54%.

Question: For Cc1cn2c(C(=O)NCc3ccc(N4CCN(c5ccc(C(F)(F)F)cn5)CC4)c(F)c3)c(C)nc2s1, which half-life [36] is on record?
Answer: The half-life was over 1440 min.

Question: And the CC50 at 48 h [37]?
Answer: The CC50 at 48 h was over 100 µM.

Question: What about the solubility [38] of the same molecule?
Answer: Its solubility is 50 µM (≈ 26.6 µg/mL).

Question: What about the half-life [39] of the same molecule?
Answer: The half-life was 28 min.

Question: And the MIC [40]?
Answer: Its MIC is 1.1 µM (≈ 0.586 µg/mL).

Question: And the MIC90 [41]?
Answer: The MIC90 was 0.008 µM (≈ 0.00426 µg/mL).

Question: What about the Activity [42] of the same molecule?
Answer: The Activity was 0.3 log10CFU.

Question: And the Activity [43]?
Answer: The Activity was 0.3 log10CFU.

Question: And the Papp [44]?
Answer: The Papp was under 10 nm/s.

Question: And the Activity [45]?
Answer: The Activity was 0.6 log10CFU.

Question: What does the source list for CCSc1nc(NC)c2ccc(F)c(F)c2n1?
Answer: CC50 [46]: 153 µM; Activity [47]: 0.5 log10CFU; MIC90 [21]: 0.2 µM (≈ 0.0511 µg/mL)

Question: With O=C1C=CN(c2c(F)cc(N3C[C@H](CNc4ccon4)OC3=O)c(F)c2F)CC1 [CONTEZOLID] as the molecule, how does the MIC [48] read?
Answer: The MIC was 1.2 µM (≈ 0.49 µg/mL).

Question: And the Activity [49]?
Answer: Its Activity is 2.3 log10CFU.
